In patent US20230338342A1, “METHODS OF TREATING RIBONUCLEOTIDE REDUCTASE-RELATED DISEASES WITH A RIBONUCLEOTIDE REDUCTASE INHIBITOR” (Taiho Pharmaceutical Co., Ltd., priority 2020, published 2023):

How the values were obtained:
[1] = tested on: Human acute myelocytic leukemia (AML) cell line MV-4-11 cells; experiment: Anti-tumor effect in MV-4-11 xenograft under various dosing regimens; format: in vivo, male nude mice; details: for effect of reducing tumor volume (relative tumor volume, RTV): Day 15, vs Control Group
Procedure: (§1) Anti-tumor Effect and body weight change in Various Dosing Regimens Human acute myelocytic leukemia (AML) cell line MV-4-11 cells (American Type Culture Collection CRL-9591™) were implanted in the right thorax of male nude mice (CLEA Japan, Inc.). After implantation of the tumor, the major axis (mm) and minor axis (mm) of the tumor were measured, and tumor volume (TV) was calculated for each mouse. Then, the mice were assigned to the following groups, Control group (○), Continuous Dosing Group (●: 100 mg/kg/day; ◊: 150 mg/kg/day) and 1-week ON+1-week OFF Dosing Group (▲: 200 mg/kg/day; ◆: 300 mg/kg/day), so that the average TV of each group was equivalent. The day in which the grouping (n=5) was conducted was taken as Day 0.
(§2) 5-chloro-2-(N-((1S,2R)-2-(6-fluoro-2,3-dimetylphenyl)-1-(5-oxo-4,5-dihydro-1,3,4-o xadiazol-2-yl)propyl)sulfamoyl)benzamide (Compound A) was suspended in 5 mg/mL hypromellose solution to provide appropriate test samples for 100 mg/kg, 150 mg/kg, 200 mg/kg, and 300 mg/kg dosing regimen. Animals of the Control group were not treated.
To mice in the Continuous Dosing Group, 100 mg/kg/day or 150 mg/kg/day of Compound A was orally administered once daily from Day 1 to Day 14. The total dosage for mice in the Continuous Dosing Group administered 100 mg/kg/day (Group C-1) is 1400 mg/kg, and the total dosage for mice in the Continuous Dosing Group administered 150 mg/kg/day (Group C-2) is 2100 mg/kg.
To mice in the 1-week ON+1-week OFF Dosing Group, 200 mg/kg/day or 300 mg/ kg/day of Compound A was orally administered once daily from Day 1 to Day 7, and not administered from Day 8 to Day 14, which corresponds to a resting period of 7 days (1 week) for recovery. The total dosage for mice in the 1-week ON+1-week OFF Dosing Group administered 200 mg/kg/day (Group I-1) is 1400 mg/kg, and the total dosage for mice in the 1-week ON+1-week OFF Dosing Group administered 300 mg/ kg/day (Group I-2) are 2100 mg/kg.
On Days 4, 8, 11 and 15, using the following formula: TV (mm^3) = (major axis x minor axis^2) / 2, relative tumor volume (RTV) was calculated as an index of anti-tumor effect during the dosing period for each group (FIG. 1).

[2] = Body weight change as index of toxicity in MV-4-11 tumor-bearing mice; format: in vivo, male nude mice; details: up to Day 15
Procedure: as §1
as §2, with “treated. […]” for “treated.”
On the other hand, the body weight (BW) was measured on Days 4, 8, 11 and 15, and the average body weight change (BW change, %) relative to the body weight on Day 0 was calculated by the following formula, as an index of toxicity during the dosing period: BW change (%) = [(BW on Day n) - (BW on Day 0)] / (BW on Day 0) x 100.

22 cell lines = experiment: Cell proliferation assay (CellTiter-Glo) and correlation with SLFN11 mRNA expression; format: cell-based; details: 10 micro mol/L, 3 days of exposure, Pearson's correlation
Text: The HEL, NUGC-3, and RPMI8226 cell lines were obtained from the Japanese Collection of Research Bioresources. The 786-O, CFPAC-1, DU145, HCC1599, HCC1806, HCC38, HCT116, HL-60, K-562, MSTO-211H, MV-4-11, NCI-H460, NCI-H2170, and THP-1 cell lines were obtained from the ATCC. The A2780 and COLO 792 cell lines were obtained from the European Collection of Authenticated Cell Cultures. The A549, A673, and MCF-7 cell lines were obtained from DS Pharma Biomedical Co., Ltd.
Cell proliferation assay was performed as reported previously (Hasako, S., et al. Mol Cancer Ther 17, 1648-1658 (2018)). Briefly, cells were plated and incubated for 1 day, followed by 3 days of exposure to the compound. After exposure to Compound A, viable cells were detected by using the CellTiter-Glo luminescent cell viability assay (Promega). The experiment was performed in triplicates.
Correlation analysis of SLFN11 expression and Compound A cytotoxicity was performed using Pearson’s correlation coefficient (P < 0.05) in JMP 13 software. The gene expression data of cell lines were available online CCLE (http://www.broadinstitute.org/ccle/home). Compound A cytotoxicity data from 22 cell lines in Table 5 were used for correlation analysis (data for correlation was not shown).

A673 cells [3] = experiment: Cell proliferation assay in A673 cells treated with siRNA against SLFN11; format: cell-based; details: siSLFN11-1 and siSLFN11-2 vs siControl, 72 h treatment
Procedure: (§3) A673 cells were transfected with 1 nM siRNAs for 24 h using Lipofectamine® RNAiMAX Reagent (Thermo Fisher Scientific Inc.) and then re-seeded onto a 96-well plate for cell proliferation assay and caspase induction assay and onto dishes for immunoblotting analysis. siRNAs were obtained from Thermo Fisher Scientific Inc. as follows: Silencer® Select Negative Control #1 siRNA (#4390843 used as siControl), SLFN11 Silencer® Select Pre-designed siRNA (#s40703 used as siSLFN11-1, and #s40704 as siSLFN11-2).
Cell proliferation assay was performed as reported previously (Hasako, et al., ibid.). Briefly, cells treated with siRNAs for 24 h were plated onto 96 well plate and incubated for 24 h, followed by 3 days of exposure to the compound. After compound exposure, viable cells were detected by using the CellTiter-Glo luminescent cell viability assay (Promega).

A673 cells [4] = experiment: Caspase induction analysis (Caspase-Glo 3/7) in A673 cells treated with siRNA against SLFN11; format: cell-based; details: A673 cells transfected with siRNA against SLFN11, 24 h treatment
Procedure: as §3
Caspase induction analysis was performed as reported previously (Hasako., et al., ibid). Briefly, the cells with siRNAs for 24 h were seeded onto 96 well plate, incubated for24 h, and then treated with Compound A for 24 h. Caspase induction was detected by using the Caspase-Glo 3/7 assay (Promega). Relative caspase-3/7 activation was calculated by applying the correction with respect to cell number. The experiment was performed in triplicates.

RNR = target: T1, RNR (Homo sapiens, UniProt P23921+P31350); details: background art; cited from earlier work
T1 sequence (P23921 1-792): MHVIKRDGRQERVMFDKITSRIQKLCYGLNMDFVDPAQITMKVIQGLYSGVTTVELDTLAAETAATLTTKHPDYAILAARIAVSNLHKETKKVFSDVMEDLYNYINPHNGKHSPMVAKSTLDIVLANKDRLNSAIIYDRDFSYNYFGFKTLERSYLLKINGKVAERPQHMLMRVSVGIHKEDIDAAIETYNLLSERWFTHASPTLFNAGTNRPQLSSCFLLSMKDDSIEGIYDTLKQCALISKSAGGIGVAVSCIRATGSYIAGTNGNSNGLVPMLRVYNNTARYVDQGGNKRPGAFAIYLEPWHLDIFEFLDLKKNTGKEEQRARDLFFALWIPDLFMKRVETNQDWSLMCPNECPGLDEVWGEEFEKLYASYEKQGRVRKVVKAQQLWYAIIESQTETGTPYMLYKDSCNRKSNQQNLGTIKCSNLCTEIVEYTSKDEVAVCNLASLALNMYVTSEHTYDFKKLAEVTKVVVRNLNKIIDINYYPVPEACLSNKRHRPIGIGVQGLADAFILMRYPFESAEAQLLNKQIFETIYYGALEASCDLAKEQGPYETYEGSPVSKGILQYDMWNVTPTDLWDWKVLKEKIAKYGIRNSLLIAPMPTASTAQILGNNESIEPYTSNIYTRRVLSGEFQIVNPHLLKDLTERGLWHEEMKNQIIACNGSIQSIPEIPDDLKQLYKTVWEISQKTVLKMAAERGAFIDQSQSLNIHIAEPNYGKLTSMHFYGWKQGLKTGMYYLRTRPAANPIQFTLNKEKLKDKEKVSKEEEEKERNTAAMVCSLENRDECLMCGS
T1 sequence (P31350 1-389): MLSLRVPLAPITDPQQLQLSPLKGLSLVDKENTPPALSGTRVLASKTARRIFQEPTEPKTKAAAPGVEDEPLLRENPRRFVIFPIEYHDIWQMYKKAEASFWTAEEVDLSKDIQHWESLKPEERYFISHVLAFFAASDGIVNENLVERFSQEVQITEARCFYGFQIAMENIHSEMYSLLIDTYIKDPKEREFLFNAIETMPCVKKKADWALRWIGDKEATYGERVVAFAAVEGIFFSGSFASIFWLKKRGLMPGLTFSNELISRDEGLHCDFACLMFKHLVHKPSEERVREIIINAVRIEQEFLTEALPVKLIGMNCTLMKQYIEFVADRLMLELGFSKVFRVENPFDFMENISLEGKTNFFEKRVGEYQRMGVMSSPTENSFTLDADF

| Structure (SMILES) | effect of reducing tumor volume (relative tumor volume, RTV) ([1]; 1-week ON+1-week OFF Dosing Group, 200 or 300 mg/kg/day orally once daily Day 1 to Day 7, rest Day 8 to Day 14) | effect of reducing tumor volume (relative tumor volume, RTV) ([1]; Continuous Dosing Group, 100 or 150 mg/kg/day orally once daily Day 1 to Day 14) | effect of reducing tumor volume, Group I-1 compared with Group C-1 ([1]; total dosage 1400 mg/kg, I-1 200 mg/kg/day 1-week ON+1-week OFF vs C-1 100 mg/kg/day continuous) | effect of reducing tumor volume, Group I-2 compared with Group C-2 ([1]; total dosage 2100 mg/kg, I-2 300 mg/kg/day 1-week ON+1-week OFF vs C-2 150 mg/kg/day continuous) | body weight change (BW change) ([2]; 1-week ON+1-week OFF Dosing Group (Groups I-1 and I-2), 200 or 300 mg/kg/day orally Day 1 to Day 7) | body weight change (BW change) ([2]; Continuous Dosing Group (Groups C-1 and C-2), 100 or 150 mg/kg/day orally Day 1 to Day 14) | correlation between SLFN11 mRNA expression and relative cell growth (%) (22 cell lines) | cytotoxic effect (cell growth) after SLFN11 knockdown (A673 cells [3]) | caspase-3/7 activation after SLFN11 knockdown (A673 cells [4]) | RNR inhibitory activity (RNR) |
| --- | --- | --- | --- | --- | --- | --- | --- | --- | --- | --- |
| Cc1ccc(F)c([C@@H](C)[C@H](NS(=O)(=O)c2ccc(Cl)cc2C(N)=O)c2n[nH]c(=O)o2)c1C [Compound A, 5-chloro-2-(N-((1S,2R)-2-(6-fluoro-2,3-dimetylphenyl)-1-(5-oxo-4,5-dihydro-1,3,4-oxadiazol-2-yl)propyl)sulfamoyl)benzamide] | shows the effect of reducing tumor volume compared with Control Group | shows the effect of reducing tumor volume compared with Control Group | tends to be higher than Group C-1, though the difference is not statistically significant | seems to be similar | shows drastic recovery in body weight | does not show satisfactorily recovery in terms of body weight loss | a significant correlation | SLFN11 knockdown significantly suppressed the cytotoxic effect | suppression of Compound A-induced caspase-3/7 activation | potent |
| NC(=O)NO [HU, hydroxyurea, reference compound] |  |  |  |  |  |  |  |  |  | weak |
